What all share (assay type): cell-based
For assay [1], the system named is HSV-1 (herpes simplex virus type 1, strain Schooler). Description: HSV-1 antiviral plaque reduction assay in cell culture. Particulars: WI-38 cell culture monolayers, at least 50% plaque reduction, 4 days incubation at 37°C, read-out: ID₅₀(µM) for the following viruses HSV-1. Here is the method:
(§1) Assays were performed in cell culture systems to determine the concentrations of compounds that are effective in preventing several kinds of viral infections.
(§2) HSV-1 (herpes simplex virus type 1, strain Schooler), HSV-2 (herpes simplex virus type 2, strain 186), VZV (varicella zoster virus, strain ELLEN), HCMV (human cytomegalovirus, strain AD 169), MuLV (murine leukemia virus, strain CAS).
(§3) HSV-1, HSV-2, HCMV, and VZV antiviral assays: Virus was adsorbed to WI-38 cell culture monolayers in 6 well culture plates (Costar, Cambridge, MA) for 1 hour prior to addition of maintenance medium containing duplicate dilutions of the test compound. Inhibition of plaque development was evaluated on fixed and stained monolayers after 4 days incubation at 37°C for HSV-1 and HSV-2 and after 6-7 days incubation at 37°C for HCMV and VZV. ID₅₀ values were determined from the drug concentration which conferred at least a 50% plaque reduction compared to virus controls.
For orientation: Plaques are areas of infected cells; plaque reduction assays count them against a control.

Assay [2] concerns HSV-2 (herpes simplex virus type 2, strain 186). Description: HSV-2 antiviral plaque reduction assay in cell culture. Conditions: WI-38 cell culture monolayers, at least 50% plaque reduction, 4 days incubation at 37°C, read-out: ID₅₀(µM) for the following viruses HSV-2. As to the method: as §1, §2, §3
Assay [3] deals with VZV (varicella zoster virus, strain ELLEN). As to the kind of experiment: VZV antiviral plaque reduction assay in cell culture. Conditions: WI-38 cell culture monolayers, at least 50% plaque reduction, 6-7 days incubation at 37°C, read-out: ID₅₀(µM) for the following viruses VZV. As to the method: as §1, §2, §3
Assay [4] concerns HCMV (human cytomegalovirus, strain AD 169). As to the kind of experiment: HCMV antiviral plaque reduction assay in cell culture. Conditions: WI-38 cell culture monolayers, at least 50% plaque reduction, 6-7 days incubation at 37°C, read-out: ID₅₀(µM) for the following viruses HCMV. Here is the method:
as §1, §2, §3

Assay [5] relates to MuLV (murine leukemia virus, strain CAS). As to the kind of experiment: MuLV antiviral assay (XC syncytial plaque assay). Conditions: SC1, SC-1 cells, XC cell overlay, syncytial plaques counted, read-out: ID₅₀(µM) for the following viruses MuLV. As to the method:
as §1, §2
MuLV antiviral assay: Antiviral assays using MuLV were performed with some modification, as described by Rowe et al. and Shannon et al.. SC-1 cells were planted at approximately 2 x 10⁵ cell per well in 6 well plates. After overnight incubation at 37°C, the cell cultures were sensitised with DEAS-Dextran for one hour at 37°C, rinsed and inoculated with MuLV. Cultures were re-fed with growth medium containing different concentrations of the test compound. After three more days at 37°C, cultures were re-fed with fresh medium plus test compounds and incubated at 37°C for an additional 3 days. Cultures were then washed to remove medium, ultraviolet light irradiated, and planted with approximately 5 x 10⁵ XC cells per well in cell growth medium containing the appropriate concentration of the test compound. […] Finally the cultures were rinsed, stained and syncytial plaques were counted. […]

Read-outs that look alike come from different tables or passages of the source.

With `Nc1nc2c(ncn2[C@@H]2[C@@H](F)[C@H](CO)[C@H]2CO)c(=O)[nH]1` (racemic) [Compound I, (1α,2β,3α,4β)-2-Amino-9-[2-fluoro-3,4-bis(hydroxymethyl)cyclobutyl]-1,9-dihydro-6H-purin-6-one], the IC50 in assay [1] (Human alphaherpesvirus 1, 96 h) is 0.7 to 1.8 µM; in assay [2] (Human alphaherpesvirus 2, 96 h) it was 0.7 µM; in assay [3] (Human alphaherpesvirus 3), 1.8 to 3.5 µM; in assay [4] (Human betaherpesvirus 5), 3.5 to 35 µM; in assay [5], 3.5 to 7 µM.

With `Nc1ncnc2c1ncn2[C@@H]1[C@@H](F)[C@H](CO)[C@H]1CO` (racemic) [Compound III, (1α,2β,3α,4β)-3-(6-Amino-9H-purin-9-yl)-4-fluoro-1,2-cyclobutanedimethanol], the IC50 in assay [1] (Human alphaherpesvirus 1, 96 h) was 37 µM; in assay [2] (Human alphaherpesvirus 2, 96 h), 7.5 to 19 µM; in assay [3] (Human alphaherpesvirus 3) it was 37 µM; in assay [4] (Human betaherpesvirus 5), 37 µM.

Turning to `Nc1nc2c(ncn2[C@@H]2[C@@H](F)[C@H](CO)[C@H]2CO)c(=O)[nH]1` [Compound II, [1S-(1α,2β,3α,4β)]-2-Amino-9-[2-fluoro-3,4-bis(hydroxymethyl)cyclobutyl]-1,9-dihydro-6H-purin-6-one], the IC50 was 0.7 to 1.8 µM in assay [1], 0.4 to 0.7 µM in assay [2], at most 0.7 µM in assay [3] and 18 to 35 µM in assay [4].

Regarding `O=c1[nH]c(=O)n([C@@H]2[C@@H](F)[C@H](CO)[C@H]2CO)cc1/C=C/Br` [Compound IV, [1S-(1α(E),2β,3α,4β)]-1-[2-fluoro-3,4-bis(hydroxymethyl)cyclobutyl]-5-(2-bromoethenyl)-2,4-(1H,3H)-pyrimidinedione], the IC50 was above 286 µM in assay [1] (Human alphaherpesvirus 1, 96 h); above 286 µM in assay [2] (Human alphaherpesvirus 2, 96 h); 28.6 to 286 µM in assay [3] (Human alphaherpesvirus 3); above 286 µM in assay [4] (Human betaherpesvirus 5).

Take `O=c1[nH]c(=O)n([C@@H]2[C@@H](F)[C@H](CO)[C@H]2CO)cc1/C=C/I` [Compound V, [1S-(1α(E),2β,3α,4β)]-1-[2-fluoro-3,4-bis(hydroxymethyl)cyclobutyl]-5-(2-iodoethenyl)-2,4-(1H,3H)-pyrimidinedione]: the IC50 is above 252 µM in assay [1] (Human alphaherpesvirus 1, 96 h); above 252 µM in assay [2] (Human alphaherpesvirus 2, 96 h); 2.5 to 25.2 µM in assay [3] (Human alphaherpesvirus 3); above 252 µM in assay [4] (Human betaherpesvirus 5).
